In patent US20250092031A1, “RIPK3 INHIBITORS AND METHODS OF USE” (Momentum Therapeutics, Inc., priority 2023, published 2025):

test system: Murine L929 cells; assay: Necroptosis inhibition assay in L929 cells (mTNFα + zVAD, Sytox Green); format: cell-based; details: Mus musculus, 10 ng/ml mTNFα and 20 μM zVAD, 6 hours, Sytox Green fluorescence
Protocol: Murine L929 cells (ATCC-CCL-1) were seeded at 10,000 cells/well in a 96-well plate. Cells were treated 48 hours after seeding with 10 ng/ml mTNFα (R&D Systems) and 20 μM zVAD (ChemShuttle) in the presence of different concentrations of compounds ranging from […] to 0.01 μM. Cells treated with 0.1% DMSO or cells treated with TNFα+zVAD were used as control and vehicle respectively.
Assay plates containing cells were incubated for 6 hours at 37° C. and 5% CO2. Necroptosis was assessed using Sytox Green Nucleic Acid Stain (Invitrogen). After incubation, 100 μL of Sytox dye at 2 μM (2×) diluted in HBSS 1× was added in each well and incubated for 15 min at room temperature. Fluorescence (500ex/530em) was recorded using the Cytation 5 microplate reader (Biotek).
Percentage of necroptosis inhibition was calculated as the percent compared to control and vehicle conditions which correspond to 100% and 0% respectively. The half-maximum necroptosis inhibition (IC50) levels were calculated using GraphPad Prism software and are shown in Table 3 (NT represents compound not tested).

Which IC50 does the source give for `COc1ccc(-c2ccc3c(Nc4ccc(C5CCN(C)CC5)c(F)c4)ccnc3c2)cc1` [Compound 2, N-(3-fluoro-4-(1-methylpiperidin-4-yl)phenyl)-7-(4-methoxyphenyl)quinolin-4-amine] here?
The IC50 was over 10 µM.

How did the IC50 turn out when `CN1CCC(c2ccc(Nc3ccnc4cc(-c5ccccc5F)ccc34)nc2)CC1` [Compound 3, 7-(2-fluorophenyl)-N-(5-(1-methylpiperidin-4-yl)pyridin-2-yl)quinolin-4-amine] was run?
The IC50 was over 10 µM.

Which IC50 does the source give for `CN1CCC(c2ccc(Nc3ccc4nccc(Nc5ccc6scnc6c5)c4c3)cc2F)CC1` [Compound 4, N4-(benzo[d]thiazol-5-yl)-N6-(3-fluoro-4-(1-methylpiperidin-4-yl)phenyl)quinoline-4,6-diamine] here?
Its IC50 is over 10 µM.

How did the IC50 turn out when `CN1CCC(c2ccc(Nc3ccnc4cc(-c5ccccc5F)ccc34)cc2F)CC1` [Compound 5, N-(3-fluoro-4-(1-methylpiperidin-4-yl)phenyl)-7-(2-fluorophenyl)quinolin-4-amine] was run?
The IC50 was over 10 µM.

`CN1CCC(c2ccc(Nc3ccnc4cc(-c5ccccn5)ccc34)cc2F)CC1` [Compound 6, N-(3-fluoro-4-(1-methylpiperidin-4-yl)phenyl)-7-(pyridin-2-yl)quinolin-4-amine] was tested. Which IC50 did it give?
The IC50 was over 10 µM.

How did the IC50 turn out when `COc1ccc(-c2ccc3c(Nc4ccc(C5CCN(C)CC5)cn4)ccnc3c2)cc1` [Compound 7, 7-(4-methoxyphenyl)-N-(5-(1-methylpiperidin-4-yl)pyridin-2-yl)quinolin-4-amine] was run?
Its IC50 is over 10 µM.

How did the IC50 turn out when `CN1CCC(c2ccc(Nc3ccnc4cc(-c5ccccn5)ccc34)nc2)CC1` [Compound 8, N-(5-(1-methylpiperidin-4-yl)pyridin-2-yl)-7-(pyridin-2-yl)quinolin-4-amine] was run?
Its IC50 is over 10 µM.

With `CN1CCC(c2ccc(Nc3ccc4nccc(Nc5ccc6scnc6c5)c4c3)nc2)CC1` [Compound 9, N4-(benzo[d]thiazol-5-yl)-N6-(5-(1-methylpiperidin-4-yl)pyridin-2-yl)quinoline-4,6-diamine] as the molecule, how does the IC50 read?
The IC50 was over 10 µM.

With `Cc1ccc(Oc2ccnc3cc(-c4ccc(CN5CCN(C)CC5)c(F)c4)ccc23)cc1` [Compound 10, 7-(3-fluoro-4-((4-methylpiperazin-1-yl)methyl)phenyl)-4-(p-tolyloxy)quinoline] as the molecule, how does the IC50 read?
Its IC50 is over 10 µM.

With `c1cc(Nc2ccc3scnc3c2)c2cc(-c3ccc(N4CCOCC4)cc3)ccc2n1` [Compound 18, N-(6-(4-morpholinophenyl)quinolin-4-yl)benzo[d]thiazol-5-amine] as the molecule, how does the IC50 read?
Its IC50 is under 10 µM.

`COc1ccc(Nc2ccnc3ccc(-c4ccc(N5CCN(C)CC5)cc4)cc23)cc1OC` [Compound 19, N-(3,4-dimethoxyphenyl)-6-(4-(4-methylpiperazin-1-yl)phenyl)quinolin-4-amine] was tested. Which IC50 did it give?
Its IC50 is over 10 µM.

How did the IC50 turn out when `CN1CCN(c2ccc(-c3ccc4nccc(Nc5ccc(Cl)c(Cl)c5)c4c3)cc2)CC1` [Compound 20, N-(3,4-dichlorophenyl)-6-(4-(4-methylpiperazin-1-yl)phenyl)quinolin-4-amine] was run?
The IC50 was under 10 µM.

`CN1CCN(c2ccc(-c3ccc4nccc(Nc5ccc6scnc6c5)c4c3)cn2)CC1` [Compound 24, N-(6-(6-(4-methylpiperazin-1-yl)pyridin-3-yl)quinolin-4-yl)benzo[d]thiazol-5-amine] was tested. Which IC50 did it give?
Its IC50 is under 10 µM.

How did the IC50 turn out when `c1cc(Nc2ccc3scnc3c2)c2cc(-c3ccc(N4CCCCC4)nc3)ccc2n1` [Compound 25, N-(6-(6-(piperidin-1-yl)pyridin-3-yl)quinolin-4-yl)benzo[d]thiazol-5-amine] was run?
The IC50 was over 10 µM.

Which IC50 does the source give for `Nc1nc2cc(Nc3ccnc4ccc(-c5ccc(CN6CCCC6)cc5F)cc34)ccc2s1` [Compound 26, N5-(6-(2-fluoro-4-(pyrrolidin-1-ylmethyl)phenyl)quinolin-4-yl)benzo[d]thiazole-2,5-diamine] here?
Its IC50 is over 10 µM.

How did the IC50 turn out when `c1cc(Nc2ccc3scnc3c2)c2cc(-c3ccc(N4CCCC4)cc3)ccc2n1` [Compound 30, N-(6-(4-(pyrrolidin-1-yl)phenyl)quinolin-4-yl)benzo[d]thiazol-5-amine] was run?
Its IC50 is over 10 µM.

With `COc1ccc(Nc2ccnc3ccc(-c4ccc(CN5CCN(C)CC5)cc4F)cc23)cc1OC` [Compound 32, N-(3,4-dimethoxyphenyl)-6-(2-fluoro-4-((4-methylpiperazin-1-yl)methyl)phenyl)quinolin-4-amine] as the molecule, how does the IC50 read?
The IC50 was over 10 µM.

How did the IC50 turn out when `CN1CCN(Cc2ccc(-c3ccc4nccc(Nc5ccc(Cl)c(F)c5)c4c3)c(F)c2)CC1` [Compound 33, N-(4-chloro-3-fluorophenyl)-6-(2-fluoro-4-((4-methylpiperazin-1-yl)methyl)phenyl)quinolin-4-amine] was run?
The IC50 was under 10 µM.

How did the IC50 turn out when `CC(C)(C)OC(=O)N1CCN(Cc2ccc(-c3ccc4nccc(Nc5ccc6scnc6c5)c4c3)c(F)c2)CC1` [Compound 38, tert-butyl 4-(4-(4-(benzo[d]thiazol-5-ylamino)quinolin-6-yl)-3-fluorobenzyl)piperazine-1-carboxylate] was run?
The IC50 was under 10 µM.

For `N#Cc1cc(-c2ccc3nccc(Nc4ccc5scnc5c4)c3c2)ccc1N1CCCC1` [Compound 39, 5-(4-(benzo[d]thiazol-5-ylamino)quinolin-6-yl)-2-(pyrrolidin-1-yl)benzonitrile], which IC50 is on record?
Its IC50 is over 10 µM.

Which IC50 does the source give for `Fc1cc(CN2CCC(C(F)(F)F)CC2)ccc1-c1ccc2nccc(Nc3ccc4scnc4c3)c2c1` [Compound 42, N-(6-(2-fluoro-4-((4-(trifluoromethyl)piperidin-1-yl)methyl)phenyl)quinolin-4-yl)benzo[d]thiazol-5-amine] here?
Its IC50 is under 10 µM.

For `c1cc(Nc2ccc3scnc3c2)c2cc(-c3ccc(OCCN4CCCCC4)cc3)ccc2n1` [Compound 44, N-(6-(4-(2-(piperidin-1-yl)ethoxy)phenyl)quinolin-4-yl)benzo[d]thiazol-5-amine], which IC50 is on record?
The IC50 was under 10 µM.

`Fc1ccc(CN2CCCCC2)cc1-c1ccc2nccc(Nc3ccc4scnc4c3)c2c1` [Compound 55, N-(6-(2-fluoro-5-(piperidin-1-ylmethyl)phenyl)quinolin-4-yl)benzo[d]thiazol-5-amine] was tested. Which IC50 did it give?
The IC50 was under 10 µM.

How did the IC50 turn out when `Fc1ccc(CN2CCCCC2)cc1-c1ccc2c(Nc3ccc4scnc4c3)ccnc2c1` [Compound 56, N-(7-(2-fluoro-5-(piperidin-1-ylmethyl)phenyl)quinolin-4-yl)benzo[d]thiazol-5-amine] was run?
Its IC50 is over 10 µM.

How did the IC50 turn out when `CC(C)(C)OC(=O)N1C2CCC1CN(Cc1ccc(-c3ccc4nccc(Nc5ccc6scnc6c5)c4c3)c(F)c1)C2` [Compound 57, tert-butyl 3-(4-(4-(benzo[d]thiazol-5-ylamino)quinolin-6-yl)-3-fluorobenzyl)-3,8-diazabicyclo[3.2.1]octane-8-carboxylate] was run?
The IC50 was over 10 µM.

`CC(C)(C)OC(=O)N1C2CCC1CN(Cc1ccc(-c3ccc4c(Nc5ccc6scnc6c5)ccnc4c3)c(F)c1)C2` [Compound 58, tert-butyl 3-(4-(4-(benzo[d]thiazol-5-ylamino)quinolin-7-yl)-3-fluorobenzyl)-3,8-diazabicyclo[3.2.1]octane-8-carboxylate] was tested. Which IC50 did it give?
The IC50 was under 10 µM.

How did the IC50 turn out when `O=C(CO)N1CCC(c2ccc(-c3ccc4nccc(Nc5ccc6scnc6c5)c4c3)cc2)CC1` [Compound 239, 1-(4-(4-(4-(benzo[d]thiazol-5-ylamino)quinolin-6-yl)phenyl)piperidin-1-yl)-2-hydroxyethan-1-one] was run?
Its IC50 is under 1 µM.

`c1cc(Nc2ccc3scnc3c2)c2cc(-c3ccc(C4CCNCC4)cc3)ccc2n1` [Compound 240, N-(6-(4-(piperidin-4-yl)phenyl)quinolin-4-yl)benzo[d]thiazol-5-amine] was tested. Which IC50 did it give?
Its IC50 is over 1 µM.

How did the IC50 turn out when `O=C(c1ccc(-c2ccc3nccc(Nc4ccc5scnc5c4)c3c2)c(F)c1)N1CCCC1` [Compound 241, (4-(4-(benzo[d]thiazol-5-ylamino)quinolin-6-yl)-3-fluorophenyl)(pyrrolidin-1-yl)methanone] was run?
The IC50 was 0.388 µM.

How did the IC50 turn out when `O=C(c1ccc(-c2ccc3c(Nc4ccc5scnc5c4)ccnc3c2)c(F)c1)N1CCCC1` [Compound 242, (4-(4-(benzo[d]thiazol-5-ylamino)quinolin-7-yl)-3-fluorophenyl)(pyrrolidin-1-yl)methanone] was run?
Its IC50 is under 1 µM.

How did the IC50 turn out when `O=C(c1ccc(-c2ccc3nccc(Nc4ccc5scnc5c4)c3c2)c(F)c1)N1CCOCC1` [Compound 243, (4-(4-(benzo[d]thiazol-5-ylamino)quinolin-6-yl)-3-fluorophenyl)(morpholino)methanone] was run?
The IC50 was under 1 µM.

With `CN(C)C(=O)c1ccc(-c2ccc3nccc(Nc4ccc5scnc5c4)c3c2)c(F)c1` [Compound 245, 4-(4-(benzo[d]thiazol-5-ylamino)quinolin-6-yl)-3-fluoro-N,N-dimethylbenzamide] as the molecule, how does the IC50 read?
Its IC50 is under 1 µM.

With `CN(C)C(=O)c1ccc(-c2ccc3c(Nc4ccc5scnc5c4)ccnc3c2)c(F)c1` [Compound 246, 4-(4-(benzo[d]thiazol-5-ylamino)quinolin-7-yl)-3-fluoro-N,N-dimethylbenzamide] as the molecule, how does the IC50 read?
The IC50 was under 1 µM.

Which IC50 does the source give for `CC1CCCCN1C(=O)c1ccc(-c2ccc3nccc(Nc4ccc5scnc5c4)c3c2)c(F)c1` (stereo not drawn) [Compound 247, (4-(4-(benzo[d]thiazol-5-ylamino)quinolin-6-yl)-3-fluorophenyl)(2-methylpiperidin-1-yl)methanone] here?
Its IC50 is over 1 µM.

With `CC1CCCCN1C(=O)c1ccc(-c2ccc3c(Nc4ccc5scnc5c4)ccnc3c2)c(F)c1` (stereo not drawn) [Compound 248, (4-(4-(benzo[d]thiazol-5-ylamino)quinolin-7-yl)-3-fluorophenyl)(2-methylpiperidin-1-yl)methanone] as the molecule, how does the IC50 read?
Its IC50 is under 1 µM.

`O=C1CN(Cc2ccc(-c3ccc4nccc(Nc5ccc6sccc6c5)c4c3)c(F)c2)CCN1` [Compound 256, 4-(4-(4-(benzo[b]thiophen-5-ylamino)quinolin-6-yl)-3-fluorobenzyl)piperazin-2-one] was tested. Which IC50 did it give?
The IC50 was over 10 µM.
